Measurements: patent US8067395B2, “Inhibitors of tyrosine kinases and uses thereof” (Pharmacyclics, Inc., priority 2006, dated 2011)

The compounds below were run against Btk (Homo sapiens, UniProt Q06187) (assay: Btk TR-FRET kinase inhibition assay). Details: pH 7.4, ATP at the Km for the kinase, 1 μM peptide substrate, [Btk]total=0.5 nM, read-out: Btk-TRFRET (Ki).
Type: biochemical
Protocol: Suitable in vitro assays for measuring kinase activity and the inhibition thereof by compounds are known (e.g., see Kuzmic et al. Anal. Biochem. 2000, 286, 45-50).
The following protocol represents an assay for determination of inhibition of kinases under physiological conditions (pH 7.4). Kinase activity was determined using a time-resolved fluorescence resonance energy transfer (TR-FRET) methodology. Measurements were performed in a reaction volume of 50 μL using 96-well assay plates. Kinase enzyme, inhibitor, ATP (at the Km for the kinase), and 1 μM peptide substrate (Biotin-AVLESEEELYSSARQ-NH2) were incubated in a reaction buffer composed of 20 mM Tris, 50 mM NaCl, MgCl2 (5-25 mM depending on the kinase), 1 mM DTT, 0.1 mM EDTA, 0.01% bovine serum albumin, 0.005% Tween-20, and 10% DMSO at pH 7.4 for one hour. The reaction was quenched by the addition of 1.2 equivalents of EDTA (relative to Mg^2+) in 25 μL of 1× Lance buffer (Perkin-Elmer). Streptavidin-APC (Perkin-Elmer) and Eu-labeled p-Tyr100 antibody (Perkin-Elmer) in 1× Lance buffer were added in a 25 μL volume to give final concentrations of 100 nM and 2.5 nM, respectively, and the mixture was allowed to incubate for one hour. The TR-FRET signal was measured on a multimode plate reader with an excitation wavelength of 330 nm and detection wavelengths of 615 nm and 665 nm. Activity was determined by the ratio of the fluorescence at 665 nm to that at 615 nm. For each compound, enzyme activity was measured at various concentrations of compound. Negative control reactions were performed in the absence of inhibitor in replicates of six, and two no-enzyme controls were used to determine baseline fluorescence levels. Inhibition constants were obtained using the program BatchKi (Kuzmic et al. Anal. Biochem. 2000, 286, 45-50). IC50s were obtained according to this equation: IC50={Ki(app)/(1+[ATP]/Km^ATP)}+[E]total/2; for all kinases, [ATP]=Km^ATP, [Btk]total=0.5 nM and [Lck]total=6 nM.

Btk, sequence (Q06187 whole entry): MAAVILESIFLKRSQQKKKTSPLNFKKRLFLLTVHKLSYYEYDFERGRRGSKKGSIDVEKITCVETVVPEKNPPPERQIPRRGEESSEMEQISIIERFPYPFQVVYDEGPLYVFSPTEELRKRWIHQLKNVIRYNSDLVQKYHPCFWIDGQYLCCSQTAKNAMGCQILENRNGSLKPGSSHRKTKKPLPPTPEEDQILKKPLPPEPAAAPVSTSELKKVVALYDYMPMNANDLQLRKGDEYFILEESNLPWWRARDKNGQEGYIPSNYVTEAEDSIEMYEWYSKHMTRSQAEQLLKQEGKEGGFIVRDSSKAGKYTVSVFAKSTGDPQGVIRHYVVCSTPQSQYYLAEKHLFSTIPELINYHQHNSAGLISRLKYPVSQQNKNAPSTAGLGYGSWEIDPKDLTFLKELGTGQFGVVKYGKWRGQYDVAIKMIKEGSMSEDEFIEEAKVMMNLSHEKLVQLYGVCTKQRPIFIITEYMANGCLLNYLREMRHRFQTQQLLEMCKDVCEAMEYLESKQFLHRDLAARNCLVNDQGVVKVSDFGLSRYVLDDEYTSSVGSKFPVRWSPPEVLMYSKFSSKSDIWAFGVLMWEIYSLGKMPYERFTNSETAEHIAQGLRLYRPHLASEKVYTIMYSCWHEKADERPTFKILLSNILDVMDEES

Compound | Ki
Cc1cc(F)ccc1Nc1nc2ccc3c(C)c(C=CCNC(=O)C4CCP(=O)(c5ccccc5)CC4)[nH]c(=O)c3c2n1C (stereo not drawn) [Compound 16, 2-(4-fluoro-2-methylphenylamino)-1,6-dimethyl-7-{3-[(1-oxo-1-trans-phenyl-1λ^5-phosphinan-4-yl)-carbonylamino]propenyl}-1,8-dihydro-imidazo[4,5-h]isoquinolin-9-one] | < 100 nM
Cc1cc(F)ccc1Nc1nc2ccc3c(C)c(C=CCN4CCP(=O)(c5ccc(F)cc5)CC4)[nH]c(=O)c3c2n1C [Compound 10, 2-(4-fluoro-2-methylphenylamino)-1,6-dimethyl-7-[3-(4-oxo-4-(4-fluorophenyl)-4λ^5-[1,4]azaphosphinan-1-yl)-propenyl]-1,8-dihydro-imidazo[4,5-h]isoquinolin-9-one] | < 100 nM
Cc1cc(F)ccc1Nc1nc2ccc3c(C)c(/C=C/CNC(=O)C4CCP(C)(=O)CC4)[nH]c(=O)c3c2n1C (mixture of isomers) [Compound 15, 2-(4-fluoro-2-methylphenylamino)-1,6-dimethyl-7-{3-[(1-oxo-1-methyl-1λ^5-phosphinan-4-yl)-carbonylamino]propenyl}-1,8-dihydro-imidazo[4,5-h]isoquinolin-9-one] | < 100 nM
Cc1cc(F)ccc1Nc1nc2ccc3c(C)c(/C=C/CN4CCP(=O)(c5ccccc5)CC4)[nH]c(=O)c3c2n1C [Compound 3, 2-(4-fluoro-2-methylphenylamino)-1,6-dimethyl-7-[3-(4-oxo-4-phenyl-4λ^5-[1,4]azaphosphinan-1-yl)-propenyl]-1,8-dihydro-imidazo[4,5-h]isoquinolin-9-one] | < 100 nM
CC(=O)N1CCN(CC=Cc2[nH]c(=O)c3c(ccc4nc(Nc5ccc(F)cc5C)n(C)c43)c2C)CC1 [Compound 21, 2-(4-fluoro-2-methylphenylamino)-1,6-dimethyl-7-[3-(N-methylcarbonylpiperazin-1-yl)-propenyl]-1,8-dihydro-imidazo[4,5-h]isoquinolin-9-one] | < 100 nM
Cc1c(/C=C/CN2CCP(=O)(c3ccccc3)CC2)[nH]c(=O)c2c1ccc1nc(Nc3c(Cl)cccc3Cl)n(C)c12 [Compound 5, 2-(2,6-dichlorophenylamino)-1,6-dimethyl-7-[3-(4-oxo-4-phenyl-4λ^5-[1,4]azaphosphinan-1-yl)-propenyl]-1,8-dihydro-imidazo[4,5-h]isoquinolin-9-one] | < 100 nM
Cc1cc(F)ccc1Nc1nc2ccc3c(C)c(/C=C/CN4CCP(=O)(C5CC5)CC4)[nH]c(=O)c3c2n1C [Compound 14, 2-(4-fluoro-2-methylphenylamino)-1,6-dimethyl-7-{3-[4-(cyclopropyl)-4-oxo-4λ^5-[1,4]azaphosphinan-1-yl]-propenyl}-1,8-dihydro-imidazo[4,5-h]isoquinolin-9-one] | < 100 nM
Cc1cc(F)ccc1Nc1nc2ccc3c(C)c(/C=C/CNC(=O)[C@H]4CC[P@@](=O)(c5ccccc5)CC4)[nH]c(=O)c3c2n1C [Compound 17, 2-(4-fluoro-2-methyl-phenylamino)-1,6-dimethyl-7-{3-[(1-oxo-1-cis-phenyl-1λ^5-phosphinan-4-yl)-carbonylamino]propenyl}-1,8-dihydro-imidazo[4,5-h]isoquinolin-9-one] | < 100 nM
Cc1cc(F)ccc1Nc1nc2ccc3c(C)c(/C=C/CN4CCP(=O)(CC5CC5)CC4)[nH]c(=O)c3c2n1C [Compound 13, 2-(4-fluoro-2-methylphenylamino)-1,6-dimethyl-7-{3-[4-(cyclopropylmethyl)-4-oxo-4λ^5-[1,4]azaphosphinan-1-yl]-propenyl}-1,8-dihydro-imidazo[4,5-h]isoquinolin-9-one] | < 100 nM
Cc1cc(F)ccc1Nc1nc2ccc3c(C)c(/C=C/CN4CCP(C)(=O)CC4)[nH]c(=O)c3c2n1C [Compound 1, 2-(4-fluoro-2-methylphenylamino)-1,6-dimethyl-7-[3-(4-methyl-4-oxo-4λ^5[1,4]azaphosphinan-1-yl)-propenyl]-1,8-dihydro-imidazo[4,5-h]isoquinolin-9-one] | < 100 nM

The remaining lines, values ahead:

Ki | Compound
< 100 nM | Cc1cc(F)ccc1Nc1nc2ccc3c(C)c(C=CCN4CCN(S(=O)(=O)N(C)C)CC4)[nH]c(=O)c3c2n1C [Compound 32, 2-(4-fluoro-2-methylphenylamino)-1,6-dimethyl-7-[3-(N—(N,N-dimethylaminosulfonyl)-piperazin-1-yl)-propenyl]-1,8-dihydro-imidazo[4,5-h]isoquinolin-9-one]
< 100 nM | CCC(=O)N1CCN(CC=Cc2[nH]c(=O)c3c(ccc4nc(Nc5ccc(F)cc5C)n(C)c43)c2C)CC1 [Compound 33, 2-(4-fluoro-2-methylphenylamino)-1,6-dimethyl-7-[3-(N-ethylcarbonylpiperazin-1-yl)-propenyl]-1,8-dihydro-imidazo[4,5-h]isoquinolin-9-one]
< 100 nM | Cc1cc(F)ccc1Nc1nc2ccc3c(C)c(C=CCN4CCN(c5ccccn5)CC4)[nH]c(=O)c3c2n1C [Compound 26, 2-(4-fluoro-2-methylphenylamino)-1,6-dimethyl-7-[3-(N-(pyridin-2-yl)-piperazin-1-yl)-propenyl]-1,8-dihydro-imidazo[4,5-h]isoquinolin-9-one]
100 to 1000 nM | Cc1c(C=NNC(=O)c2ccccc2)[nH]c(=O)c2c1ccc1nc(Nc3c(Cl)cccc3Cl)n(C)c12 [Compound 45, benzoic acid [2-(2,6-dichlorophenylamino)-1,6-dimethyl-9-oxo-8,9-dihydro-1H-imidazo[4,5-h]isoquinolin-7-ylmethylene]-hydrazide]
100 to 1000 nM | Cc1c(C=NNC(=O)c2cccnc2)[nH]c(=O)c2c1ccc1nc(Nc3c(Cl)cccc3Cl)n(C)c12 [Compound 48, pyridine-3-carboxylic acid [2-(2,6-dichlorophenylamino)-1,6-dimethyl-9-oxo-8,9-dihydro-1H-imidazo[4,5-h]isoquinolin-7-ylmethylene]-hydrazide]
< 100 nM | Cc1cc(F)ccc1Nc1nc2ccc3c(C)c(/C=C/CN4CCN(S(C)(=O)=O)CC4)[nH]c(=O)c3c2n1C [Compound 24, 2-(4-fluoro-2-methylphenylamino)-1,6-dimethyl-7-[3-(N-methylsulfonylpiperazin-1-yl)-propenyl]-1,8-dihydro-imidazo[4,5-h]isoquinolin-9-one]
< 100 nM | Cc1cc(F)ccc1Nc1nc2ccc3c(C)c(C=CCN4CCN(C(=O)C(C)C)CC4)[nH]c(=O)c3c2n1C [Compound 36, 2-(4-fluoro-2-methylphenylamino)-1,6-dimethyl-7-[3-(N-isopropylcarbonylpiperazin-1-yl)-propenyl]-1,8-dihydro-imidazo[4,5-h]isoquinolin-9-one]
< 100 nM | Cc1cc(F)ccc1Nc1nc2ccc3c(C)c(/C=C/CN4CCN(c5ccc(F)cc5)CC4)[nH]c(=O)c3c2n1C [Compound 30, 2-(4-fluoro-2-methylphenylamino)-1,6-dimethyl-7-[3-(N-(4-fluorophenyl)-piperazin-1-yl)-propenyl]-1,8-dihydro-imidazo[4,5-h]isoquinolin-9-one]
< 100 nM | Cc1cc(F)ccc1Nc1nc2ccc3c(C)c(C=CCN4CCN(c5ccncc5)CC4)[nH]c(=O)c3c2n1C [Compound 23, 2-(4-fluoro-2-methylphenylamino)-1,6-dimethyl-7-[3-(N-(pyridin-4-yl)-piperazin-1-yl)-propenyl]-1,8-dihydro-imidazo[4,5-h]isoquinolin-9-one]
< 100 nM | Cc1cc(F)ccc1Nc1nc2ccc3c(C)c(C=CCN4CCN(S(=O)(=O)C(C)C)CC4)[nH]c(=O)c3c2n1C [Compound 34, 2-(4-fluoro-2-methylphenylamino)-1,6-dimethyl-7-[3-(N-(isopropylsulfonyl)-piperazin-1-yl)-propenyl]-1,8-dihydro-imidazo[4,5-h]isoquinolin-9-one]
< 100 nM | Cc1c(/C=N/O)[nH]c(=O)c2c1ccc1nc(Nc3c(Cl)cccc3Cl)n(C)c12 [Compound 44, 2-(2,6-dichlorophenylamino)-1,6-dimethyl-9-oxo-8,9-dihydro-1H-imidazo[4,5-h]isoquinoline-7-carbaldehyde oxime]
< 100 nM | CCS(=O)(=O)N1CCN(CC=Cc2[nH]c(=O)c3c(ccc4nc(Nc5ccc(F)cc5C)n(C)c43)c2C)CC1 [Compound 35, 2-(4-fluoro-2-methylphenylamino)-1,6-dimethyl-7-[3-(N-(ethylsulfonyl)-piperazin-1-yl)-propenyl]-1,8-dihydro-imidazo[4,5-h]isoquinolin-9-one]
< 100 nM | C#CCN(C)CC=Cc1[nH]c(=O)c2c(ccc3nc(Nc4c(Cl)cccc4Cl)n(C)c32)c1C [Compound 42, 2-(2,6-dichlorophenylamino)-1,6-dimethyl-7-[3-(N-methyl-N-(prop-2-ynyl)amino)prop-1-enyl]-1,8-dihydro-imidazo[4,5-h]isoquinolin-9-one]
